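Exposure lasted 48 hours, with cells grown in 96-well plates and compounds tested at five concentrations. Definition used: TGI = concentration required for complete inhibition of growth.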
Assays:
Experiment in all cases: inhibition of tumour cell growth, NCI panel, 48 h
786-0 renal = tested on: 786-0 renal
A498 renal = tested on: A498 renal
A549 NSCLC = tested on: A549 NSCLC
ACHN renal = tested on: ACHN renal
BT-549 breast = tested on: BT-549 breast
CAKI-1 renal = tested on: CAKI-1 renal
CCRF-CEM leukemia = tested on: CCRF-CEM leukemia
COLO 205 colon = tested on: COLO 205 colon
DU-145 prostate = tested on: DU-145 prostate
EKVX NSCLC = tested on: EKVX NSCLC
HCC-2998 colon = tested on: HCC-2998 colon
HCT-116 colon = tested on: HCT-116 colon
HCT-15 colon = tested on: HCT-15 colon
HL-60(TB) leukemia = tested on: HL-60(TB) leukemia
HOP-62 NSCLC = tested on: HOP-62 NSCLC
HOP-92 NSCLC = tested on: HOP-92 NSCLC
HS 578T breast = tested on: HS 578T breast
HT29 colon = tested on: HT29 colon
IGROV1 ovarian = tested on: IGROV1 ovarian
K-562 leukemia = tested on: K-562 leukemia
KM12 colon = tested on: KM12 colon
LOX IMVI melanoma = tested on: LOX IMVI melanoma
M14 melanoma = tested on: M14 melanoma
MALME-3M melanoma = tested on: MALME-3M melanoma
MCF7 breast = tested on: MCF7 breast
MDA-MB-231 breast = tested on: MDA-MB-231 breast
MDA-MB-435 = tested on: MDA-MB-435
MDA-N = tested on: MDA-N
MOLT-4 leukemia = tested on: MOLT-4 leukemia
NCI-H226 lung = tested on: NCI-H226 lung
NCI-H23 lung = tested on: NCI-H23 lung
NCI-H460 lung = tested on: NCI-H460 lung
NCI-H522 lung = tested on: NCI-H522 lung
NCI/ADR-RES ovarian = tested on: NCI/ADR-RES ovarian
OVCAR-3 ovarian = tested on: OVCAR-3 ovarian
OVCAR-4 ovarian = tested on: OVCAR-4 ovarian
OVCAR-5 ovarian = tested on: OVCAR-5 ovarian
OVCAR-8 ovarian = tested on: OVCAR-8 ovarian
PC-3 prostate = tested on: PC-3 prostate
RPMI-8226 leukemia = tested on: RPMI-8226 leukemia
RXF 393 renal = tested on: RXF 393 renal
SF-268 CNS = tested on: SF-268 CNS
SF-295 CNS = tested on: SF-295 CNS
SF-539 CNS = tested on: SF-539 CNS
SK-MEL-2 melanoma = tested on: SK-MEL-2 melanoma
SK-MEL-28 melanoma = tested on: SK-MEL-28 melanoma
SK-MEL-5 melanoma = tested on: SK-MEL-5 melanoma
SK-OV-3 ovarian = tested on: SK-OV-3 ovarian
SN12C renal = tested on: SN12C renal
SNB-19 CNS = tested on: SNB-19 CNS
SNB-75 CNS = tested on: SNB-75 CNS
SW-620 colon = tested on: SW-620 colon
T-47D breast = tested on: T-47D breast
TK-10 renal = tested on: TK-10 renal
U251 CNS = tested on: U251 CNS
UACC-257 melanoma = tested on: UACC-257 melanoma
UACC-62 melanoma = tested on: UACC-62 melanoma
UO-31 renal = tested on: UO-31 renal

CC[C@@H]1CC[C@@H]2[C@H](CC[C@]3(C)[C@@H](O)CC[C@@H]23)[C@H]1CO
TGI (786-0 renal): > 100 µM
TGI (A498 renal): > 100 µM
TGI (A549 NSCLC): > 100 µM
TGI (ACHN renal): > 100 µM
TGI (BT-549 breast): > 100 µM
TGI (CAKI-1 renal): > 100 µM
TGI (CCRF-CEM leukemia): > 100 µM
TGI (COLO 205 colon): > 100 µM
TGI (DU-145 prostate): > 100 µM
TGI (EKVX NSCLC): > 100 µM
TGI (HCC-2998 colon): > 100 µM
TGI (HCT-116 colon): > 100 µM
TGI (HCT-15 colon): > 100 µM
TGI (HL-60(TB) leukemia): 85.8 µM
TGI (HOP-62 NSCLC): > 100 µM
TGI (HOP-92 NSCLC): > 100 µM
TGI (HS 578T breast): > 100 µM
TGI (HT29 colon): > 100 µM
TGI (IGROV1 ovarian): > 100 µM
TGI (K-562 leukemia): > 100 µM
TGI (KM12 colon): > 100 µM
TGI (LOX IMVI melanoma): > 100 µM
TGI (M14 melanoma): > 100 µM
TGI (MALME-3M melanoma): > 100 µM
TGI (MCF7 breast): > 100 µM
TGI (MDA-MB-231 breast): > 100 µM
TGI (MDA-MB-435): > 100 µM
TGI (MDA-N): > 100 µM
TGI (MOLT-4 leukemia): > 100 µM
TGI (NCI-H226 lung): > 100 µM
TGI (NCI-H23 lung): > 100 µM
TGI (NCI-H460 lung): > 100 µM
TGI (NCI-H522 lung): > 100 µM
TGI (NCI/ADR-RES ovarian): > 100 µM
TGI (OVCAR-3 ovarian): > 100 µM
TGI (OVCAR-4 ovarian): > 100 µM
TGI (OVCAR-5 ovarian): > 100 µM
TGI (OVCAR-8 ovarian): > 100 µM
TGI (PC-3 prostate): > 100 µM
TGI (RPMI-8226 leukemia): > 100 µM
TGI (RXF 393 renal): > 100 µM
TGI (SF-268 CNS): > 100 µM
TGI (SF-295 CNS): > 100 µM
TGI (SF-539 CNS): > 100 µM
TGI (SK-MEL-2 melanoma): > 100 µM
TGI (SK-MEL-28 melanoma): > 100 µM
TGI (SK-MEL-5 melanoma): > 100 µM
TGI (SK-OV-3 ovarian): > 100 µM
TGI (SN12C renal): > 100 µM
TGI (SNB-19 CNS): > 100 µM
TGI (SNB-75 CNS): > 100 µM
TGI (SW-620 colon): > 100 µM
TGI (T-47D breast): > 100 µM
TGI (TK-10 renal): > 100 µM
TGI (U251 CNS): > 100 µM
TGI (UACC-257 melanoma): > 100 µM
TGI (UACC-62 melanoma): > 100 µM
TGI (UO-31 renal): > 100 µM
